Assay results published in patent publication US5141931A, “5-Quinolinylpyridinones, cardiotonic compositions and methods” (Sterling Winthrop Inc., priority 1991, dated 1992).

Tests used:
mean arterial pressure = assay: In vivo Vasodilation in the Rat; set-up: species or system normotensive male Sprague-Dawley rats; conditions: 0.4 mg/kg, orally by gavage
Description: Procedure 2--In vivo Vasodilation in the Rat
Normotensive male Sprague-Dawley rats of 325-425 g were anesthetized with sodium pentobarbital and an arterial catheter was placed in the abdominal aorta via the femoral artery. The catheter was tunneled subcutaneously, exteriorized at the nape of the neck, filled with heparinized saline and sealed with a stainless steel plug. The wounds were sutured and a suspension of penicillin G benzathine and penicillin G procaine was administered subcutaneously. All animals were allowed at least two days recovery prior to testing.
Rats were fasted 17 hours then placed into individual plexiglass boxes. The arterial catheter was connected to a Statham pressure transducer, positioned at the heart level, and the arterial pressure signal was recorded on a polygraph. The animals remained undisturbed for at least one hour to adapt to the testing environment. After the adaptation period, three baseline arterial pressure and heart rate measurements were taken at 15-minute intervals prior to the administration of the test drug. […] Arterial pressure and heart rate were measured at 15-minute intervals for the first hour and 30-minute intervals for the next four hours following the administration of drugs.
The data were analyzed by one-way analysis of variance for repeated measures. […]

[1] = biological target: Phosphodiesterase III (PDE III); assay: Phosphodiesterase III Inhibition; assay type: biochemical, mongrel dogs (thoracic aorta); conditions: dog thoracic aorta PDE III; substrate concentration 1 μM; triplicate
Description: Procedure 1 --Phosphodiesterase III Inhibition
Phosphodiesterase III (PDE III) was obtained by a slight modification of the methods of Thompson et al. [Advances in Cyclic Nucleotide Research vol. […] Thoracic aorta from mongrel dogs was minced with fine scissors and homogenized in 10 volumes of a buffer containing 10 mM tris acetate, pH 7.5, 2 mM magnesium chloride, 1mM dithiothreitol and 2000 units per mL of aprotinin. This and subsequent procedures were performed at 0-4°. The tissue was homogenized, the homogenate was sonicated and the resultant homogenate was centrifuged at 48,000 g for 30 minutes. The resulting supernatant fraction was applied to a diethylaminoethyl ether (DEAE) cellulose column that had been equilibrated with 35 or 70 mM sodium acetate containing 1 mM dithiothreitol at pH 6.5. After application of the sample, the column was washed with 2-3 bed volumes of the equilibration buffer and the PDE isozyme was eluted from the column using a continuous sodium acetate gradient to 1 molar. Fractions of approximately 5 mL were collected and assayed for cAMP and cGMP PDE activity at substrate concentrations of 1 μM. Appropriate fractions corresponding to peak three were pooled and dialyzed against 70 mM sodium acetate, 0.5 mM dithiothreitol for at least 20 hours.

Compound | area under the curve for reduction of mean arterial pressure (mean arterial pressure; conscious normotensive rats) [%] | statistical significance of reduction of mean arterial pressure (mean arterial pressure; Student Newman-Keuls test, probability of less than 5%, to the end of the test at six hours) | IC50 [1] [nM]
Cc1[nH]c(=O)c(C#N)cc1-c1ccc2ncccc2c1 [Example 3, 1,2-Dihydro-6-methyl-2-oxo-5-(6-quinolinyl)-3-pyridinecarbonitrile] | 75 | statistical significance at all times to the end of the test at six hours | 57
Cc1[nH]c(=O)c(C#N)cc1-c1ccncc1 [milrinone, reference compound] |  |  | 500
